Test results as given in ChEMBL document CHEMBL1130335, “Comparative molecular field analysis of a series of paclitaxel analogues” (J Med Chem, 1997).

test: Measured activity expressed as ID50 (analogue)/ID50 (paclitaxel), where ID50 is the concentration of compound leading to 50% inhibition of the rate microtubule disassembly; format: functional

Point of comparison: `CC(=O)O[C@@H]1C2=C(C)[C@@H](OC(=O)[C@H](O)[C@H](COc3ccccc3)NC(=O)c3ccccc3)C[C@@](O)([C@@H](OC(=O)c3ccccc3)[C@H]3[C@@](C)([C@@H](O)CC4OC[C@]43OC(C)=O)[C@H]1O)C2(C)C` (stereo partly specified), Activity 5.81. Against it:
- CC(=O)O[C@H]1C(=O)[C@]2(C)[C@@H](O)CC3OC[C@@]3(OC(C)=O)[C@H]2[C@H](OC(=O)c2ccccc2)[C@]2(O)C[C@H](OC(=O)C(O)C(C)O)C(C)=C1C2(C)C (stereo partly specified) — higher, 60
- CC(=O)O[C@@]12COC1C[C@H](O)[C@@]1(C)C(=O)[C@H](O)C3=C(C)[C@@H](OC(=O)[C@@H](NC(=O)OC(C)(C)C)[C@@H](O)c4ccccc4)C[C@@](O)([C@@H](OC(=O)c4ccccc4)[C@@H]12)C3(C)C (stereo partly specified) — higher, 160
- CC(=O)O[C@H]1C(=O)[C@]2(C)[C@@H](O)CC3OC[C@@]3(OC(C)=O)[C@H]2[C@H](OC(=O)c2ccccc2)[C@]2(O)C[C@H](OC(=O)[C@H](O)[C@H](NC(=O)c3ccccc3)c3ccc(Cl)c(Cl)c3)C(C)=C1C2(C)C (stereo partly specified) — higher, 7.1
- CC(=O)O[C@@H]1C2=C(C)[C@@H](OC(=O)[C@H](O)[C@@H](NC(=O)OC(C)(C)C)C(O)CO)C[C@@](O)([C@@H](OC(=O)c3ccccc3)[C@H]3[C@@](C)([C@@H](O)CC4OC[C@]43OC(C)=O)[C@H]1O)C2(C)C (stereo partly specified) — lower, 2.71
- CC(=O)O[C@H]1C(=O)[C@]2(C)[C@@H](O)CC3OC[C@@]3(OC(C)=O)[C@H]2[C@H](OC(=O)c2ccccc2)[C@]2(O)C[C@H](OC(=O)[C@H](O)[C@H](NC(=O)c3ccccc3)c3ccccn3)C(C)=C1C2(C)C (stereo partly specified) — lower, 0.7
- CO[C@H]1CC2OC[C@@]2(OC(C)=O)[C@H]2[C@H](OC(=O)c3ccccc3)[C@]3(O)C[C@H](OC(=O)[C@H](O)[C@@H](NC(=O)c4ccccc4)c4ccccc4)C(C)=C([C@@H](OC(C)=O)[C@H](O)[C@]12C)C3(C)C (stereo partly specified) — lower, 0.92
- CC(=O)O[C@@]12COC1C[C@H](O)[C@@]1(C)C(=O)[C@H](O)C3=C(C)[C@@H](OC(=O)[C@H](O)Cc4ccccc4)C[C@@](O)([C@@H](OC(=O)c4ccccc4)[C@@H]12)C3(C)C (stereo partly specified) — lower, 4.5
- CC(=O)O[C@H]1C(=O)[C@]2(C)[C@@H](O)CC3OC[C@@]3(OC(C)=O)[C@H]2[C@H](OC(=O)c2ccccc2)[C@]2(O)C[C@H](OC(=O)[C@H](O)[C@H](NC(=O)CC(C)(C)C)c3ccccc3)C(C)=C1C2(C)C (stereo partly specified) — lower, 0.7
- CC(=O)O[C@H]1C(=O)[C@]2(C)[C@@H](O)CC3OC[C@@]3(OC(C)=O)[C@H]2[C@H](OC(=O)c2ccccc2)[C@]2(O)C[C@H](OC(=O)[C@H](O)[C@@H](NC(=O)c3ccccc3)C3CCCCC3)C(C)=C1C2(C)C (stereo partly specified) — lower, 0.29
- CC(=O)O[C@@H]1C2=C(C)[C@@H](OC(=O)[C@H](O)[C@@H](NC(=O)OC(C)(C)C)c3ccccc3)C[C@@](O)([C@@H](OC(=O)c3ccccc3)[C@H]3[C@@](C)([C@@H](O)CC4OC[C@]43OC(C)=O)[C@H]1O)C2(C)C (stereo partly specified) — lower, 0.87
- CC(=O)O[C@H]1C(=O)[C@]2(C)[C@@H](O)CC3OC[C@@]3(OC(C)=O)[C@H]2[C@H](OC(=O)c2ccccc2)[C@]2(O)C[C@H](OC(=O)[C@H](O)[C@H](NC(=O)C(C)(C)C)c3ccccc3)C(C)=C1C2(C)C (stereo partly specified) — lower, 2.6
- COC(=O)[C@@H](C(=O)O[C@H]1C[C@@]2(O)[C@@H](OC(=O)c3ccccc3)[C@H]3[C@](C)(C(=O)[C@H](O)C(=C1C)C2(C)C)[C@@H](O)CC1OC[C@]13OC(C)=O)[C@H](NC(=O)OC(C)(C)C)c1ccccc1 (stereo partly specified) — higher, 10
- CC(=O)O[C@@]12COC1C[C@H](O)[C@@]1(C)C(=O)[C@H](O)C3=C(C)[C@@H](OC(=O)CCc4ccccc4)C[C@@](O)([C@@H](OC(=O)c4ccccc4)[C@@H]12)C3(C)C (stereo partly specified) — higher, 17
- CC(=O)O[C@H]1C(=O)[C@]2(C)[C@@H](O)CC3OC[C@@]3(OC(C)=O)[C@H]2[C@H](OC(=O)c2ccccc2)[C@]2(O)C[C@H](OC(=O)[C@H](O)[C@H](NC(=O)c3ccc(C(F)(F)F)cc3)c3ccccc3)C(C)=C1C2(C)C (stereo partly specified) — higher, 6
- CC(=O)O[C@@]12COC1C[C@H](O)[C@@]1(C)C(=O)[C@H](O)C3=C(C)[C@@H](OC(=O)[C@H](O)[C@H](NC(=O)OC(C)(C)C)c4ccccc4)C[C@@](O)([C@@H](OC(=O)c4ccccc4)[C@@H]12)C3(C)C (stereo partly specified) — lower, 0.6
- C/C=C/C(=O)O[C@H]1C[C@@]2(O)[C@@H](OC(=O)c3ccccc3)[C@H]3[C@](C)(C(=O)[C@H](OC(C)=O)C(=C1C)C2(C)C)[C@@H](O)CC1OC[C@]13OC(C)=O (stereo partly specified) — higher, 100
- CC(=O)O[C@@]12COC1C[C@H](O)[C@@]1(C)C(=O)[C@H](O)C3=C(C)[C@@H](OC(=O)[C@H](O)[C@H](NC(=O)C4CCCC4)C(C)(C)C)C[C@@](O)([C@@H](OC(=O)c4ccccc4)[C@@H]12)C3(C)C (stereo partly specified) — lower, 1.5
- CC(=O)O[C@@]12COC1C[C@H](O)[C@@]1(C)C(=O)[C@H](O)C3=C(C)[C@@H](OC(=O)[C@H](NC(=O)OC(C)(C)C)[C@H](O)c4ccccc4)C[C@@](O)([C@@H](OC(=O)c4ccccc4)[C@@H]12)C3(C)C (stereo partly specified) — higher, 10
- CC(=O)N[C@@H](c1ccccc1)[C@@H](O)C(=O)O[C@H]1C[C@@]2(O)[C@@H](OC(=O)c3ccccc3)[C@H]3[C@@](C)([C@@H](O)CC4OC[C@]43OC(C)=O)[C@@H](O)[C@H](OC(C)=O)C(=C1C)C2(C)C (stereo partly specified) — lower, 3.17
- CC(=O)O[C@H]1C(=O)[C@]2(C)[C@@H](O)CC3OC[C@@]3(OC(C)=O)[C@H]2[C@H](OC(=O)c2ccccc2)[C@]2(O)C[C@H](OC(=O)[C@H](O)[C@H](N)c3ccccc3)C(C)=C1C2(C)C (stereo partly specified) — higher, 44
- CC(=O)O[C@H]1C(=O)[C@]2(C)[C@@H](O)CC3OC[C@@]3(OC(C)=O)[C@H]2[C@H](OC(=O)c2ccccc2)[C@]2(O)C[C@H](OC(=O)[C@H](O)[C@H](NC(=O)c3ccccc3)c3ccc(O)cc3)C(C)=C1C2(C)C (stereo partly specified) — lower, 0.8
- CC(=O)O[C@H]1C(=O)[C@]2(C)[C@@H](O)CC3OC[C@@]3(OC(C)=O)[C@H]2[C@H](OC(=O)c2ccccc2)[C@]2(O)C[C@H](OC(=O)[C@H](O)[C@H](NC(=O)C(C)=O)c3ccccc3)C(C)=C1C2(C)C (stereo partly specified) — lower, 3.5
- CCCC[C@H](NC(=O)OC(C)(C)C)[C@@H](O)C(=O)O[C@H]1C[C@@]2(O)[C@@H](OC(=O)c3ccccc3)[C@H]3[C@@](C)([C@@H](O)CC4OC[C@]43OC(C)=O)[C@@H](O)[C@H](OC(C)=O)C(=C1C)C2(C)C (stereo partly specified) — higher, 9.74
- CC(=O)O[C@@]12COC1C[C@H](O)[C@@]1(C)C(=O)C[C@@]34O[C@]3(C)[C@@H](OC(=O)[C@H](O)[C@@H](NC(=O)c3ccccc3)c3ccccc3)C[C@@](O)([C@@H](OC(=O)c3ccccc3)[C@@H]12)C4(C)C (stereo partly specified) — lower, 0.66
- CC(=O)O[C@H]1C(=O)[C@]2(C)[C@@H](O)CC3OC[C@@]3(OC(C)=O)[C@H]2[C@H](OC(=O)c2ccccc2)[C@]2(O)C[C@H](OC(=O)[C@H](O)[C@H](NC(=O)c3ccccc3)c3ccc(Cl)cc3)C(C)=C1C2(C)C (stereo partly specified) — lower, 2.4
- CC(=O)O[C@@H]1C2=C(C)[C@@H](OC(=O)[C@H](O)[C@@H](NC(=O)c3ccccc3)c3ccccc3)C[C@@](O)([C@@H](OC(=O)c3ccccc3)[C@H]3[C@@](C)([C@@H](O)CC4OC[C@]43OC(C)=O)[C@H]1O)C2(C)C (stereo partly specified) — lower, 0.86
- C/C=C(/C)C(=O)N[C@H](c1ccccc1)[C@@H](O)C(=O)O[C@H]1C[C@@]2(O)[C@@H](OC(=O)c3ccccc3)[C@H]3[C@](C)(C(=O)[C@H](OC(C)=O)C(=C1C)C2(C)C)[C@@H](O)CC1OC[C@]13OC(C)=O (stereo partly specified) — lower, 1.5
- CC(=O)O[C@H]1C(=O)[C@]2(C)[C@@H](O)CC3OC[C@@]3(OC(C)=O)[C@H]2[C@H](OC(=O)c2ccccc2)[C@]2(O)C[C@H](OC(=O)[C@H](O)[C@H](NC(=O)c3ccccc3)c3ccco3)C(C)=C1C2(C)C (stereo partly specified) — lower, 0.9
- CC(=O)O[C@H]1C(=O)[C@]2(C)[C@@H](O)CC3OC[C@@]3(OC(C)=O)[C@H]2[C@H](OC(=O)c2ccccc2)[C@]2(O)C[C@H](OC(=O)[C@H](O)[C@H](NC(=O)c3ccc(C)cc3)c3ccccc3)C(C)=C1C2(C)C (stereo partly specified) — lower, 1.1
- COc1ccc(C(=O)N[C@H](c2ccccc2)[C@@H](O)C(=O)O[C@H]2C[C@@]3(O)[C@@H](OC(=O)c4ccccc4)[C@H]4[C@](C)(C(=O)[C@H](OC(C)=O)C(=C2C)C3(C)C)[C@@H](O)CC2OC[C@]24OC(C)=O)cc1 (stereo partly specified) — lower, 0.5
- CO[C@H]1[C@H](OC(C)=O)C2=C(C)[C@@H](OC(=O)[C@H](O)[C@@H](NC(=O)OC(C)(C)C)c3ccccc3)C[C@@](O)([C@@H](OC(=O)c3ccccc3)[C@H]3[C@@]1(C)[C@@H](O)CC1OC[C@]13OC(C)=O)C2(C)C (stereo partly specified) — lower, 0.51
- CC(=O)O[C@H]1C(=O)[C@]2(C)[C@@H](O)CC3OC[C@@]3(OC(C)=O)[C@H]2[C@H](OC(=O)c2ccccc2)[C@]2(O)C[C@H](OC(=O)[C@@H](O)[C@@H](NC(=O)OC(C)(C)C)c3ccccc3)C(C)=C1C2(C)C (stereo partly specified) — higher, 30
- CC[C@H](NC(=O)OC(C)(C)C)[C@@H](O)C(=O)O[C@H]1C[C@@]2(O)[C@@H](OC(=O)c3ccccc3)[C@H]3[C@@](C)([C@@H](O)CC4OC[C@]43OC(C)=O)[C@@H](O)[C@H](OC(C)=O)C(=C1C)C2(C)C (stereo partly specified) — lower, 0.61
- CC(=O)O[C@H]1C(=O)[C@]2(C)[C@@H](O)CC3OC[C@@]3(OC(C)=O)[C@H]2[C@H](OC(=O)c2ccccc2)[C@]2(O)C[C@H](OC(=O)[C@H](O)[C@H](NC(=O)c3ccco3)c3ccccc3)C(C)=C1C2(C)C (stereo partly specified) — lower, 0.8
- CC(=O)O[C@H]1C(=O)[C@]2(C)[C@@H](O)CC3OC[C@@]3(OC(C)=O)[C@H]2[C@H](OC(=O)c2ccccc2)[C@]2(O)C[C@H](OC(=O)[C@H](O)[C@H](NC(=O)OC(C)(C)C)c3ccccc3)C(C)=C1C2(C)C (stereo partly specified) — lower, 0.5
